In PMC8963254, “Effects of Lysine N-ζ-Methylation in Ultrashort Tetrabasic Lipopeptides (UTBLPs) on the Potentiation of Rifampicin, Novobiocin, and Niclosamide in Gram-Negative Bacteria” (Antibiotics, 2022):
Read-outs that look alike come from different tables or passages of the source.

Tests used:
S. aureus ATCC 29213 = type: cell-based, Staphylococcus aureus; conditions: ATCC 29213, 18 h
Experimental: (§1) The in vitro antibacterial activity of the UTBLPs was assessed against wild-type and clinically isolated bacterial strains. To obtain the MIC of the compounds, the microbroth dilution susceptibility assay was performed according to the Clinical and Laboratory Standards Institute (CLSI, Wayne, PA, USA) guidelines and as previously described. Briefly, the compounds at varying concentrations were incubated with bacterial inoculum (5 × 10^5 CFU/mL final concentration) at 37 °C for 18 h. Growth in the form of turbidity was confirmed using an EMax Plus microplate reader (Molecular Devices, San Jose, CA, USA) at 590 nm.

MRSA ATCC 33592 = type: cell-based, Staphylococcus aureus; conditions: ATCC 33592, 18 h
Experimental: as §1

[1] = system: P. aeruginosa PA259-96196; assay: microbe, parasite or virus in culture; type: cell-based, Pseudomonas aeruginosa; conditions: PA259-96196, 18 h
Experimental: as §1

[2] = system: P. aeruginosa PA262-101856; assay: microbe, parasite or virus in culture; type: cell-based, Pseudomonas aeruginosa; conditions: PA262-101856, 18 h
Experimental: as §1

[3] = system: P. aeruginosa PA259-96196; type: cell-based, Pseudomonas aeruginosa; conditions: for MICUTBLP: UTBLP alone
Experimental: (§2) The synergy of the UTBLPs with various antibiotics was assessed using checkerboard assay as previously described. Briefly, the combination of antibiotic and OMP at varying concentrations were incubated with bacterial inoculum (5 × 10^5 CFU/mL final concentration) at 37 °C for 18 h. Growth in the form of turbidity was confirmed using an EMax Plus microplate reader (Molecular Devices, Union City, CA, USA) at 590 nm. Fractional inhibitory concentration index (FICI) was used to evaluate the interaction between the antibiotic and the OMP. FICI is the sum of the FIC of the antibiotic and the FIC of the OMP. The FIC value is calculated by dividing the MIC of the agents in combination by the MIC of the agent alone. FICI ≤ 0.5 is synergistic, 0.5 < x ≤ 4 is additive, and >4 is antagonistic.

P. aeruginosa PAO1 [4] = type: cell-based, Pseudomonas aeruginosa; conditions: for MICUTBLP: UTBLP alone
Experimental: as §2

[5] = system: P. aeruginosa PA262-101856; type: cell-based, Pseudomonas aeruginosa; conditions: for MICUTBLP: UTBLP alone
Experimental: as §2

A. baumannii AB027 = type: cell-based, Acinetobacter baumannii; conditions: for MICUTBLP: UTBLP alone
Experimental: as §2

A. baumannii 92247 = type: cell-based, Acinetobacter baumannii; conditions: for MICUTBLP: UTBLP alone
Experimental: as §2

A. baumannii ATCC 17978 = type: cell-based, Acinetobacter baumannii; conditions: for MICUTBLP: UTBLP alone
Experimental: as §2

P. aeruginosa PAO1 [6] = type: cell-based, Pseudomonas aeruginosa; conditions: PAO1, 18 h
Experimental: as §1

E. cloacae 118564 [7] = assay: microbe, parasite or virus in culture; type: cell-based, Enterobacter cloacae; conditions: 118564, 18 h
Experimental: as §1

E. cloacae 118564 [8] = type: cell-based, Enterobacter cloacae; conditions: for MICUTBLP: UTBLP alone
Experimental: as §2

[9] = UTBLP in combination with novobiocin
[10] = UTBLP in combination with rifampicin
[11] = novobiocin in combination with the UTBLP
[12] = rifampicin in combination with the UTBLP
[13] = UTBLP in combination with chloramphenicol
[14] = UTBLP in combination with niclosamide
[15] = chloramphenicol in combination with the UTBLP
[16] = niclosamide in combination with the UTBLP

CCCCCCCC(=O)N[C@@H](CCCCN)C(=O)NCCCN(CCCNC(=O)[C@H](CCCCN)NC(=O)CCCCCCC)CC(=O)N[C@@H](CCCCN)C(N)=O [UTBLP 1]
0.125 µg/mL: MICantibiotic [MICcombo] (A. baumannii AB027; [11]) | MICantibiotic [MICcombo] (A. baumannii 92247; [12]) | MICantibiotic [MICcombo] (A. baumannii ATCC 17978; [11]) | MICantibiotic [MICcombo] (A. baumannii ATCC 17978; [12]) | MICantibiotic [MICcombo] (E. cloacae 118564 [8]; [12])
4 µg/mL: MICUTBLP [MICcombo] (P. aeruginosa PAO1 [4]; [10]) | MICantibiotic [MICcombo] (P. aeruginosa PAO1 [4]; [15]) | MICUTBLP [MICcombo] (A. baumannii 92247; [9]) | MICUTBLP [MICcombo] (A. baumannii 92247; [10])
Synergy (FICI ≤ 0.5 is synergistic): Interpretation ([3]; UTBLP + novobiocin) | Interpretation ([3]; UTBLP + rifampicin) | Interpretation (P. aeruginosa PAO1 [4]; UTBLP + chloramphenicol) | Interpretation (P. aeruginosa PAO1 [4]; UTBLP + novobiocin) | Interpretation (P. aeruginosa PAO1 [4]; UTBLP + rifampicin) | Interpretation ([5]; UTBLP + novobiocin) | Interpretation ([5]; UTBLP + rifampicin) | Interpretation (A. baumannii AB027; UTBLP + novobiocin) | Interpretation (A. baumannii AB027; UTBLP + rifampicin) | Interpretation (A. baumannii 92247; UTBLP + novobiocin) | Interpretation (A. baumannii 92247; UTBLP + rifampicin) | Interpretation (A. baumannii ATCC 17978; UTBLP + niclosamide) | Interpretation (A. baumannii ATCC 17978; UTBLP + novobiocin) | Interpretation (A. baumannii ATCC 17978; UTBLP + rifampicin) | Interpretation (E. cloacae 118564 [8]; UTBLP + novobiocin) | Interpretation (E. cloacae 118564 [8]; UTBLP + rifampicin)
1024 µg/mL: MICantibiotic [MICcombo] (P. aeruginosa PAO1 [4]; [16])
16 µg/mL: MICUTBLP [MICcombo] [3, 10] | MICUTBLP [MICcombo] (P. aeruginosa PAO1 [4]; [9]) | MICUTBLP [MICcombo] [5, 9] | MICUTBLP [MICcombo] [5, 10] | MICUTBLP [MICcombo] (A. baumannii ATCC 17978; [9])
128 µg/mL: MIC (MRSA ATCC 33592) | MIC [2] | MICantibiotic [MICcombo] [3, 11] | MICUTBLP ([5]; plate with novobiocin) | MICUTBLP ([5]; plate with rifampicin) | MICUTBLP (A. baumannii AB027; plate with novobiocin) | MICUTBLP (A. baumannii AB027; plate with rifampicin)
0.063 µg/mL: MICantibiotic [MICcombo] (A. baumannii AB027; [12])
> 128 µg/mL: MIC [1] | MICUTBLP ([3]; plate with novobiocin) | MICUTBLP ([3]; plate with rifampicin) | MICUTBLP (P. aeruginosa PAO1 [4]; plate with chloramphenicol) | MICUTBLP (P. aeruginosa PAO1 [4]; plate with niclosamide) | MICUTBLP (P. aeruginosa PAO1 [4]; plate with novobiocin) | MICUTBLP (P. aeruginosa PAO1 [4]; plate with rifampicin) | MICUTBLP (A. baumannii ATCC 17978; plate with chloramphenicol) | MICUTBLP (A. baumannii ATCC 17978; plate with niclosamide) | MICUTBLP (A. baumannii ATCC 17978; plate with novobiocin) | MICUTBLP (A. baumannii ATCC 17978; plate with rifampicin) | MIC (E. cloacae 118564 [7]) | MICUTBLP (E. cloacae 118564 [8]; plate with novobiocin) | MICUTBLP (E. cloacae 118564 [8]; plate with rifampicin)
8 µg/mL: MICUTBLP [MICcombo] [3, 9] | MICUTBLP [MICcombo] (A. baumannii AB027; [9]) | MICUTBLP [MICcombo] (A. baumannii AB027; [10]) | MICUTBLP [MICcombo] (A. baumannii ATCC 17978; [14]) | MICUTBLP [MICcombo] (A. baumannii ATCC 17978; [10]) | MICUTBLP [MICcombo] (E. cloacae 118564 [8]; [9]) | MICUTBLP [MICcombo] (E. cloacae 118564 [8]; [10])
64 µg/mL: MIC (S. aureus ATCC 29213) | MICantibiotic [MICcombo] [5, 11] | MICUTBLP (A. baumannii 92247; plate with novobiocin) | MICUTBLP (A. baumannii 92247; plate with rifampicin)
>128 µg/mL: MIC (P. aeruginosa PAO1 [6])
0.5 µg/mL: MICantibiotic [MICcombo] [3, 12] | MICantibiotic [MICcombo] (A. baumannii ATCC 17978; [16])
0.25 µg/mL: MICUTBLP [MICcombo] (P. aeruginosa PAO1 [4]; [14]) | MICantibiotic [MICcombo] (A. baumannii 92247; [11])
256 µg/mL: MICantibiotic [MICcombo] [5, 12]
Additive (0.5 < x ≤ 4 is additive): Interpretation (P. aeruginosa PAO1 [4]; UTBLP + niclosamide) | Interpretation (A. baumannii ATCC 17978; UTBLP + chloramphenicol)
2 µg/mL: MICUTBLP [MICcombo] (P. aeruginosa PAO1 [4]; [13]) | MICantibiotic [MICcombo] (P. aeruginosa PAO1 [4]; [12]) | MICantibiotic [MICcombo] (E. cloacae 118564 [8]; [11])
32 µg/mL: MICantibiotic [MICcombo] (P. aeruginosa PAO1 [4]; [11]) | MICUTBLP [MICcombo] (A. baumannii ATCC 17978; [13]) | MICantibiotic [MICcombo] (A. baumannii ATCC 17978; [15])
